Measurements taken from the NIST ThermoML archive (doi:10.1021/acs.jced.8b00547).

Experiments:
[1] = xn = mol fraction of the nth substance listed; conditions: 101 kPa, Liquid; for speed of sound: Single path-length method; for mass density: Vibrating tube method
[2] = refractive index (Na D-line) (dimensionless); xn = mol fraction of the nth substance listed; conditions: 101 kPa, Liquid, Standard Abbe refractometry

CCCC(C)=O [pentan-2-one] + CC(C)O
Conditions | mass density, [1] [kg/m3] | refractive index, [2] | speed of sound, [1] [m/s]
298.15 K, x1 = 0.0978 | 782.98 | 1.3767 | 1146.5
298.15 K, x1 = 0.2344 | 785.78 | 1.3786 | 1157.5
298.15 K, x1 = 0.3338 | 787.81 | 1.37996 | 1165.5
298.15 K, x1 = 0.4126 | 789.5 | 1.38098 | 1171.7
298.15 K, x1 = 0.4972 | 791.25 | 1.38207 | 1178.4
298.15 K, x1 = 0.6036 | 793.49 | 1.3834 | 1186.6
298.15 K, x1 = 0.7125 | 795.82 | 1.38472 | 1195
298.15 K, x1 = 0.8043 | 797.8 | 1.3858 | 1202
298.15 K, x1 = 0.9009 | 799.87 | 1.3869 | 1209.1
298.15 K, x1 = 1 | 802.09 | 1.38782 | 1216
308.15 K, x1 = 0.0978 | 774.13 | 1.3723 | 1110.6
308.15 K, x1 = 0.2344 | 776.72 | 1.37412 | 1120.8
308.15 K, x1 = 0.3338 | 778.65 | 1.3754 | 1128.1
308.15 K, x1 = 0.4126 | 780.23 | 1.37637 | 1133.8
308.15 K, x1 = 0.4972 | 781.85 | 1.37741 | 1139.9
308.15 K, x1 = 0.6036 | 783.93 | 1.37867 | 1147.5
308.15 K, x1 = 0.7125 | 786.12 | 1.37993 | 1155.2
308.15 K, x1 = 0.8043 | 788.05 | 1.38098 | 1161.6
308.15 K, x1 = 0.9009 | 790.07 | 1.382 | 1168.2
308.15 K, x1 = 1 | 792.32 | 1.38284 | 1174.4
318.15 K, x1 = 0.0978 | 764.87 | 1.3677 | 1074.9
318.15 K, x1 = 0.2344 | 767.32 | 1.36948 | 1084.2
318.15 K, x1 = 0.3338 | 769.16 | 1.37072 | 1090.9
318.15 K, x1 = 0.4126 | 770.69 | 1.37167 | 1096.1
318.15 K, x1 = 0.4972 | 772.19 | 1.37268 | 1101.7
318.15 K, x1 = 0.6036 | 774.18 | 1.3739 | 1108.7
318.15 K, x1 = 0.7125 | 776.29 | 1.37511 | 1115.7
318.15 K, x1 = 0.8043 | 778.16 | 1.3761 | 1121.5
318.15 K, x1 = 0.9009 | 780.17 | 1.37708 | 1127.6
318.15 K, x1 = 1 | 782.44 | 1.37782 | 1133.3
328.15 K, x1 = 0.0978 | 755.34 | 1.36295 | 1039
328.15 K, x1 = 0.2344 | 757.63 | 1.36471 | 1047.7
328.15 K, x1 = 0.3338 | 759.42 | 1.36591 | 1054
328.15 K, x1 = 0.4126 | 760.87 | 1.36686 | 1058.8
328.15 K, x1 = 0.4972 | 762.28 | 1.36785 | 1064.1
328.15 K, x1 = 0.6036 | 764.21 | 1.36905 | 1070.6
328.15 K, x1 = 0.7125 | 766.2 | 1.37023 | 1077.2
328.15 K, x1 = 0.8043 | 768.09 | 1.3712 | 1082.6
328.15 K, x1 = 0.9009 | 770.12 | 1.37215 | 1088.3
328.15 K, x1 = 1 | 772.43 | 1.3728 | 1093.6
338.15 K, x1 = 0.0978 | 744.73 | 1.3579 | 1003.3
338.15 K, x1 = 0.2344 | 746.99 | 1.35966 | 1011.5
338.15 K, x1 = 0.3338 | 748.79 | 1.36085 | 1017.3
338.15 K, x1 = 0.4126 | 750.28 | 1.36181 | 1021.8
338.15 K, x1 = 0.4972 | 751.71 | 1.3628 | 1026.7
338.15 K, x1 = 0.6036 | 753.67 | 1.36398 | 1032.7
338.15 K, x1 = 0.7125 | 755.74 | 1.36515 | 1038.8
338.15 K, x1 = 0.8043 | 757.71 | 1.36612 | 1043.8
338.15 K, x1 = 0.9009 | 759.83 | 1.36705 | 1049
338.15 K, x1 = 1 | 762.27 | 1.36764 | 1053.8
